Laboratory results: article PMC11002876, “KcsA-Kv1.x chimeras with complete ligand-binding sites provide improved predictivity for screening selective Kv1.x blockers” (The Journal of Biological Chemistry, 2024)
Substitutions are numbered along the chain they refer to. Where a SMILES comes first, the peptide text is derived from it.

What was measured:
KcsA-Kv1.3 T+F chimera = target: T1, KcsA-Kv1.3 T+F chimera (Streptomyces lividans, UniProt P0A334, A54D/A57S/G53D/G56T/I60S/L59F/L81M/Q58G/R52A/R64D/T61S/Y62I/Y82H); experiment: Phage ELISA-binding assay, KcsA-Kv1.3 T+F; parameters: species or system human Kv1.3 turret and filter in Streptomyces lividans KcsA; conditions: toxin displayed on M13 phage, Fig. 6D
T1 construct: made in house; host or cells: E. coli C41(DE3) (pET45b)
T1 sequence (P0A334 1-160 R52A/G53D/A54D/G56T/A57S/Q58G/L59F/I60S/T61S/Y62I/R64D/L81M/Y82H): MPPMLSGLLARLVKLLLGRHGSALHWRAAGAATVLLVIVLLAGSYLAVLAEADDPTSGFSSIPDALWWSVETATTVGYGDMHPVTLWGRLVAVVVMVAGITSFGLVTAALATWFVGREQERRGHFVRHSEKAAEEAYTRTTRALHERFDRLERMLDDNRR
Experimental: (§1) Phage display test solutions were prepared according to routine phage display protocols ([62]). Phosphorylated and annealed oligonucleotides encoding the peptide construct were ligated into linearized pAS62 phagemid vector (https://patents.google.com/patent/WO2022144560A1/en) at a vector/insert ratio of 1:3. The final phagemid construct harbored a signal sequence followed by the peptide of interest, a linker sequence ([…]), and the C-terminal part of the P3 coat protein (amino acids: 216-424 of NP_510891.1). Chemically competent XL1-Blue E. coli cells (2022249, Agilent) were transformed with the ligation product and then streaked onto ampicillin (100 μg/ml) containing LB/Amp plates and incubated for 16 h at 37 °C. A few clones were sequenced, and a single colony with confirmed target sequence was inoculated into 3 ml 2 YT medium supplemented with 100 μg/ml ampicillin and incubated at 37 °C until the culture reached midlog phase. The culture was infected with M13KO7 helper phage (N0315S, New England Biolabs) (phage/cell ratio 10:1) and was incubated for 30 min at 37 °C. The 3 ml culture was transferred into 200 ml 2YT medium, supplemented with 100 μg/ml ampicillin and 25 μg/ml kanamycin, and incubated overnight at 37 °C. The overnight cell culture (200 ml) was pelleted by centrifugation at 8000g for 10 min in 400 ml centrifuge tubes at 4 °C. […] The particle concentrations of phage solutions were determined using a NanoDrop One C (Thermo Fisher Scientific) spectrophotometer. The phage particle concentration was assessed according to the formula: (A268–A320) × 5 × 10^12 particles/ml ([62]). […]
(§2) Phage stock solutions were diluted to working concentration with phage resuspension buffer supplemented with 2 mM DDM. […] Following blocking, the wells were washed 4× with washing buffer (300 μl TBS-Tween, 0.1% v/v) using a Wellwash Versa microplate washer (Thermo Fisher Scientific); then 50 μl phage solution (in TBS-BSA-Tween, 0.1% v/v, 2 mM DDM) at determined phage concentration was added to the wells and incubated for 1 h at room temperature on a horizontal shaker. […]

human Kv1.2 = conditions: cited from earlier work; for IC50: human Kv1.2 channel blocking, patch-clamp, read-out: IC50, Kv1.x blocking (Kv1.2)
Experimental: Elution was done at 1 ml/min flow rate. Eluted peak fractions (1 ml) were analyzed by SDS-PAGE, then pooled and concentrated. The concentration of the purified protein was determined by measuring the UV absorbance at 280 nm using the protein extinction coefficient calculator in the ProtParam tool of Ex ...

[1] = target: T2, KcsA-Kv1.1 T-only chimera (Streptomyces lividans, UniProt P0A334, R52A/G53E/A54E/P55A/G56E/A57S/Q58H/L59F/I60S/T61S/Y62I/R64D); experiment: Phage ELISA-binding assay, KcsA-Kv1.1 T-only; parameters: species or system human Kv1.1 turret in Streptomyces lividans KcsA; conditions: toxin displayed on M13 phage; Fig. 8C
T2 sequence (P0A334 1-160 R52A/G53E/A54E/P55A/G56E/A57S/Q58H/L59F/I60S/T61S/Y62I/R64D): T1 sequence (P0A334 1-160 R52A/G53D/A54D/G56T/A57S/Q58G/L59F/I60S/T61S/Y62I/R64D/L81M/Y82H) with D53E, D54E, P55A, T56E, G58H, M81L, H82Y
Experimental: as §1, §2

Compound	rank order of phage binding to KcsA-Kv1.3 T+F (KcsA-Kv1.3 T+F chimera)	block of native Kv1.2, in words (human Kv1.2)	IC50 (human Kv1.2)	phage binding to KcsA-Kv1.1 T-only, in words [1]	inhibition of Kv1.2, in words (human Kv1.2)
CC[C@H](C)[C@H](NC(=O)[C@H](C)NC(=O)[C@H](C)NC(=O)[C@H](C)N)C(=O)N[C@@H](CO)C(=O)N[C@H]1CSSC[C@@H]2NC(=O)[C@H](CCCCN)NC(=O)CNC(=O)[C@H](CC(N)=O)NC(=O)[C@H](CCCCN)NC(=O)[C@@H]3CSSC[C@@H](C(N)=O)NC(=O)[C@H](Cc4ccc(O)cc4)NC(=O)[C@H](Cc4ccc(O)cc4)NC(=O)[C@@H]4CSSC[C@H](NC(=O)[C@H](CCCCN)NC(=O)[C@@H]5CCCN5C(=O)[C@@H]5CCCN5C(=O)[C@H](CSSC[C@H](NC(=O)[C@H](CCCCN)NC(=O)[C@H](CCCNC(=N)N)NC(=O)[C@H](CC(N)=O)NC(=O)[C@H](CCSC)NC2=O)C(=O)N[C@@H](CCCCN)C(=O)N4)NC(=O)[C@H](CCC(=O)O)NC(=O)[C@@H]2CCCN2C(=O)[C@H](CO)NC(=O)CNC(=O)[C@H](C(C)C)NC1=O)C(=O)N[C@@H](CCCNC(=N)N)C(=O)N[C@@H](C)C(=O)N[C@@H](CCC(N)=O)C(=O)NCC(=O)N3 [Vm24, Vm24 toxin]	Vm24 > HgTx1 > KTX1	–	–	–	–
CC[C@H](C)[C@@H]1NC(=O)[C@@H]2CSSC[C@H](NC(=O)[C@H](CO)NC(=O)[C@@H](N)C(C)C)C(=O)N[C@@H]([C@@H](C)O)C(=O)NCC(=O)N[C@@H](CO)C(=O)N[C@@H](CCCCN)C(=O)N[C@@H](CC(=O)O)C(=O)N[C@@H](CSSC[C@@H](C(=O)N[C@@H](CCCCN)C(=O)N[C@H]3CSSC[C@@H](C(N)=O)NC(=O)CNC(=O)[C@H](Cc4ccc(O)cc4)NC3=O)NC(=O)[C@H](CO)NC(=O)[C@H](CCCCN)NC(=O)[C@H](CC(N)=O)NC1=O)C(=O)N[C@@H](Cc1ccc(O)cc1)C(=O)N[C@@H](C)C(=O)N1CCC[C@H]1C(=O)N[C@H]1CSSC[C@H](NC(=O)CNC(=O)[C@H]([C@@H](C)O)NC(=O)[C@H](CCC(N)=O)NC(=O)[C@H](CCCCN)NC(=O)[C@H](CCCNC(=N)N)NC1=O)C(=O)N1CCC[C@H]1C(=O)N[C@@H](CC(N)=O)C(=O)N[C@@H](C)C(=O)N[C@@H](CCCCN)C(=O)N2 [MTX, Maurotoxin] (HELM PEPTIDE1{V.S.C.T.G.S.K.D.C.Y.A.P.C.R.K.Q.T.G.C.P.N.A.K.C.I.N.K.S.C.K.C.Y.G.C.[am]}$PEPTIDE1,PEPTIDE1,3:R3-24:R3|PEPTIDE1,PEPTIDE1,9:R3-29:R3|PEPTIDE1,PEPTIDE1,13:R3-19:R3|PEPTIDE1,PEPTIDE1,31:R3-34:R3$$$V2.0; N-terminus and C-terminus assumed)	–	potent blocker	0.8 nM	negligible binding	–
CC[C@H](C)[C@@H]1NC(=O)[C@@H](NC(=O)[C@H](CO)NC(=O)[C@@H](N)CCCNC(=N)N)CSSC[C@@H](C(=O)O)NC(=O)[C@H]([C@@H](C)O)NC(=O)CNC(=O)[C@@H]2CSSC[C@@H]3NC(=O)[C@H](CCC(N)=O)NC(=O)[C@H](Cc4ccccc4)NC(=O)[C@H](C)NC(=O)[C@H]([C@@H](C)O)NC(=O)[C@H](CSSC[C@H](NC(=O)[C@H](Cc4ccccc4)NC(=O)[C@H](CO)NC(=O)[C@H](CC(C)C)NC(=O)[C@H](CCCNC(=N)N)NC(=O)[C@H](Cc4ccc(O)cc4)NC(=O)[C@H](CCCCN)NC(=O)[C@H](CCSC)NC(=O)[C@H](CO)NC(=O)[C@H](Cc4c[nH]cn4)NC(=O)[C@H](CCCCN)NC3=O)C(=O)N[C@@H](CCCNC(=N)N)C(=O)N[C@@H](CCCCN)C(=O)N[C@@H]([C@@H](C)O)C(=O)N2)NC(=O)[C@H](CCCNC(=N)N)NC(=O)[C@H](CO)NC(=O)[C@H](CCCCN)NC(=O)[C@@H]2CCCN2C(=O)[C@H]([C@@H](C)CC)NC(=O)[C@H]([C@@H](C)O)NC(=O)[C@H](CC(=O)O)NC1=O [ShK, Stichodactyla toxin]	–	–	9 nM	ShK > KTX1	–
CC[C@H](C)[C@@H]1NC(=O)CNC(=O)[C@H](Cc2ccccc2)NC(=O)[C@H](CCC(N)=O)NC(=O)[C@H](C)NC(=O)[C@H](CCCCN)NC(=O)[C@@H]2CSSC[C@@H](C(=O)N[C@@H](Cc3ccc(O)cc3)C(=O)N3CCC[C@H]3C(=O)N[C@@H](Cc3c[nH]cn3)C(=O)O)NC(=O)[C@H](CCCCN)NC(=O)[C@@H]3CSSC[C@H](NC(=O)[C@H](CCC(N)=O)NC(=O)[C@H](CCCCN)NC(=O)[C@@H]4CCCN4C(=O)[C@H](CO)NC(=O)[C@H]([C@@H](C)O)NC(=O)[C@@H](NC(=O)[C@H](CCCCN)NC(=O)[C@@H](NC(=O)[C@H](CC(=O)O)NC(=O)[C@@H](NC(=O)[C@@H](NC(=O)[C@@H](N)[C@@H](C)O)C(C)C)[C@@H](C)CC)C(C)C)CSSC[C@H](NC(=O)[C@H](CCCCN)NC(=O)[C@H](C)NC(=O)CNC(=O)[C@H](C)NC(=O)[C@H](CCCNC(=N)N)NC1=O)C(=O)N[C@@H](CCSC)C(=O)N[C@@H](CC(N)=O)C(=O)NCC(=O)N[C@@H](CCCCN)C(=O)N3)C(=O)N[C@@H](CC(C)C)C(=O)N1CCC[C@H]1C(=O)N1CCC[C@H]1C(=O)N2 [HgTx1, Hongotoxin-1] (HELM PEPTIDE1{T.V.I.D.V.K.C.T.S.P.K.Q.C.L.P.P.C.K.A.Q.F.G.I.R.A.G.A.K.C.M.N.G.K.C.K.C.Y.P.H}$PEPTIDE1,PEPTIDE1,7:R3-29:R3|PEPTIDE1,PEPTIDE1,13:R3-34:R3|PEPTIDE1,PEPTIDE1,17:R3-36:R3$$$V2.0; N-terminus and C-terminus assumed)	Vm24 > HgTx1 > KTX1	–	–	–	equivalent high potency
